Measured values taken from patent US10251395B2, “Substituted furano-/thienocycloalkylamino-2-pyrimidine derivatives and use thereof for controlling undesired plant growth” (Bayer CropScience Aktiengesellschaft, priority 2015, dated 2019).
Blank lines part the entries; values can stand above or below the compound they belong to.

Legend:
logP (HCOOH) = assay type: physicochemical
From the text: Table 2 (physicochemical characterization of selected synthesis examples)

Alopecurus myosuroides = assay: Pre-emergence herbicidal effect; assay type: in vivo; conditions: Dosage 320 g/ha, scored visually after 3 weeks
Summary of the method: (§1)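 Seeds in sandy loam were covered with soil and treated pre-emergence with WP or EC formulations applied as aqueous spray with 0.2% wetting agent. Percent damage was scored visually after 3 weeks relative to untreated controls.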

Amaranthus retroflexus [1] = assay: Pre-emergence herbicidal effect; assay type: in vivo; conditions: Dosage 320 g/ha, scored visually after 3 weeks
Summary of the method: as §1

Echinochloa crus-galli [2] = assay: Pre-emergence herbicidal effect; assay type: in vivo; conditions: Dosage 320 g/ha, scored visually after 3 weeks
Summary of the method: as §1

Lolium multiflorum = assay: Pre-emergence herbicidal effect; assay type: in vivo; conditions: Dosage 320 g/ha, scored visually after 3 weeks
Summary of the method: as §1

Matricaria inodora = assay: Pre-emergence herbicidal effect; assay type: in vivo; conditions: scored visually after 3 weeks
Summary of the method: as §1

Polygonum convolvulus [3] = assay: Pre-emergence herbicidal effect; assay type: in vivo; conditions: scored visually after 3 weeks
Summary of the method: as §1

Setaria viridis = assay: Pre-emergence herbicidal effect; assay type: in vivo; conditions: Dosage 320 g/ha, scored visually after 3 weeks
Summary of the method: as §1

Stellaria media [4] = assay: Pre-emergence herbicidal effect; assay type: in vivo; conditions: scored visually after 3 weeks
Summary of the method: as §1

Veronica persica [5] = assay: Pre-emergence herbicidal effect; assay type: in vivo; conditions: scored visually after 3 weeks
Summary of the method: as §1

Viola tricolor [6] = assay: Pre-emergence herbicidal effect; assay type: in vivo; conditions: scored visually after 3 weeks
Summary of the method: as §1

Abutilon theophrasti [7] = assay: Post-emergence herbicidal effect; assay type: in vivo; conditions: 320 g/ha, assessed visually after about 3 weeks vs untreated controls
Summary of the method: (§2)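 Ratings are visual percentages taken around 3 weeks after treatment, compared with untreated plants. Treatment consisted of an aqueous spray of WP or EC formulations, with 0.2% wetting agent, onto one-leaf-stage weeds raised from seed in sandy loam.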

Amaranthus retroflexus [8] = assay: Post-emergence herbicidal effect; assay type: in vivo; conditions: 320 g/ha, assessed visually after about 3 weeks vs untreated controls
Summary of the method: as §2

Polygonum convolvulus [9] = assay: Post-emergence herbicidal effect; assay type: in vivo; conditions: 320 g/ha, assessed visually after about 3 weeks vs untreated controls
Summary of the method: as §2

Stellaria media [10] = assay: Post-emergence herbicidal effect; assay type: in vivo; conditions: 320 g/ha, assessed visually after about 3 weeks vs untreated controls
Summary of the method: as §2

Viola tricolor [11] = assay: Post-emergence herbicidal effect; assay type: in vivo; conditions: 320 g/ha, assessed visually after about 3 weeks vs untreated controls
Summary of the method: as §2

Abutilon theophrasti [12] = assay: Pre-emergence herbicidal effect; assay type: in vivo; conditions: Dosage 320 g/ha, scored visually after 3 weeks
Summary of the method: as §1

Echinochloa crus-galli [13] = assay: Post-emergence herbicidal effect; assay type: in vivo; conditions: 320 g/ha, assessed visually after about 3 weeks vs untreated controls
Summary of the method: as §2

Veronica persica [14] = assay: Post-emergence herbicidal effect; assay type: in vivo; conditions: 320 g/ha, assessed visually after about 3 weeks vs untreated controls
Summary of the method: as §2

SMILES: Nc1nc(NC2CCc3ccsc32)ncc1[N+](=O)[O-] (racemic) [compound 32]
logP (HCOOH) (logP (HCOOH)): solid; m.p.: 189.5° C.; logP (HCOOH): 1.53;

SMILES: Cc1cc2c(s1)CCCC2Nc1ncc(S(=O)(=O)C(C)(C)C)c(N)n1 (racemic) [compound 76]
logP (HCOOH) (logP (HCOOH)): solid; logP (HCOOH): 3.01; 1H NMR (CDCl3, 400 MHZ, δ in ppm): ): 1.40 (s, 9H,

SMILES: CO/N=C(/C)c1cnc(NC2CCCc3sccc32)nc1N (racemic) [compound 292]
ALOMY pre-emergence efficacy (herbicidal activity) (Alopecurus myosuroides): 100%
AMARE pre-emergence efficacy (herbicidal activity) (Amaranthus retroflexus [1]): 100%
ECHCG pre-emergence efficacy (herbicidal activity) (Echinochloa crus-galli [2]): 100%
LOLMU pre-emergence efficacy (herbicidal activity) (Lolium multiflorum): 70%
MATIN pre-emergence efficacy (herbicidal activity) (Matricaria inodora; Dosage 80 g/ha): 80%
MATIN pre-emergence efficacy (herbicidal activity) (Matricaria inodora; Dosage 320 g/ha): 100%
POLCO pre-emergence efficacy (herbicidal activity) (Polygonum convolvulus [3]; Dosage 80 g/ha): 70%
SETVI pre-emergence efficacy (herbicidal activity) (Setaria viridis): 100%
STEME pre-emergence efficacy (herbicidal activity) (Stellaria media [4]; Dosage 80 g/ha): 100%
STEME pre-emergence efficacy (herbicidal activity) (Stellaria media [4]; Dosage 320 g/ha): 100%
VERPE pre-emergence efficacy (herbicidal activity) (Veronica persica [5]; Dosage 80 g/ha): 100%
VERPE pre-emergence efficacy (herbicidal activity) (Veronica persica [5]; Dosage 320 g/ha): 100%
VIOTR pre-emergence efficacy (herbicidal activity) (Viola tricolor [6]; Dosage 80 g/ha): 100%
VIOTR pre-emergence efficacy (herbicidal activity) (Viola tricolor [6]; Dosage 320 g/ha): 100%
post-emergence efficacy ABUTH (Abutilon theophrasti [7]): 80%
post-emergence efficacy AMARE (Amaranthus retroflexus [8]): 80%
post-emergence efficacy POLCO (Polygonum convolvulus [9]): 30%
post-emergence efficacy STEME (Stellaria media [10]): 90%
post-emergence efficacy VIOTR (Viola tricolor [11]): 80%

chromatographic logP (logP (HCOOH); HCOOH (formic acid)): 3.2
SMILES: Cc1cc2c(o1)CC(C)(C)CC2Nc1ncc([N+](=O)[O-])c(N)n1 (centres unmarked) [compound 40, 5-Nitro-N2-(2,6,6-trimethyl-4,5,6,7-tetrahydro-1-benzofuran-4-yl)pyrimidine-2,4-diamine]

SMILES: Cc1cc2c(s1)CCC2Nc1ncc(S(=O)(=O)C(C)(C)C)c(N)n1 (racemic) [compound 77]
logP (HCOOH) (logP (HCOOH)): solid; logP (HCOOH): 2.67; 1H NMR (CDCl3, 400 MHZ, δ in ppm): 1.40 (s, 9H, 3*3H

SMILES: COc1nc(NC2CCCc3sc(C)cc32)ncc1F (racemic) [compound 224]
logP (HCOOH) (logP (HCOOH)): solid; logP (HCOOH): 3.12; 1H NMR (CDCl3, 400 MHZ, δ in ppm): 1.90 (m, 3H, 3H

SMILES: Nc1nc(NC2CCCc3sc(Cl)cc32)ncc1C(F)(F)F (racemic) [compound 22]
ABUTH pre-emergence efficacy (herbicidal activity) (Abutilon theophrasti [12]): 80%
AMARE pre-emergence efficacy (herbicidal activity) (Amaranthus retroflexus [1]): 100%
ECHCG pre-emergence efficacy (herbicidal activity) (Echinochloa crus-galli [2]): 100%
LOLMU pre-emergence efficacy (herbicidal activity) (Lolium multiflorum): 100%
MATIN pre-emergence efficacy (herbicidal activity) (Matricaria inodora; Dosage 320 g/ha): 100%
POLCO pre-emergence efficacy (herbicidal activity) (Polygonum convolvulus [3]; Dosage 320 g/ha): 100%
SETVI pre-emergence efficacy (herbicidal activity) (Setaria viridis): 100%
STEME pre-emergence efficacy (herbicidal activity) (Stellaria media [4]; Dosage 320 g/ha): 100%
VERPE pre-emergence efficacy (herbicidal activity) (Veronica persica [5]; Dosage 320 g/ha): 100%
VIOTR pre-emergence efficacy (herbicidal activity) (Viola tricolor [6]; Dosage 320 g/ha): 100%
post-emergence efficacy ABUTH (Abutilon theophrasti [7]): 90%
post-emergence efficacy AMARE (Amaranthus retroflexus [8]): 100%
post-emergence efficacy ECHCG (Echinochloa crus-galli [13]): 90%
post-emergence efficacy POLCO (Polygonum convolvulus [9]): 90%
post-emergence efficacy STEME (Stellaria media [10]): 90%
post-emergence efficacy VERPE (Veronica persica [14]): 90%
post-emergence efficacy VIOTR (Viola tricolor [11]): 90%
